Test results taken from patent publication US10357577B2, “Bacterial nitroreductase enzymes and methods relating thereto” (AUCKLAND UNISERVICES LIMITED, priority 2010, dated 2019).

Experiments:
[1] = test system: nitroreductase NfsA-expressing HCT116 'activator' cells; assay: MCL (multicellular layer) bystander experiment, NfsA-dependent activation; format: cell-based, human
Procedure: Displacement of the Target cell survival curve to the left (T to Tc) is indicative of the presence of a cytotoxic metabolite(s) able to diffusible out of the sensitive activator (A) cell population. The prodrug concentrations for 10% survival (C10) of target cells (wild-type cells) grown without activators (T), targets in co-culture (TC) and activators (nfsA-expressing cells) in co-culture (AC) were determined by interpolation. BEE-Bystander effect efficiency calculates the drugs bystander effect: ((Log C10T−Log C10TC)/(Log C10T−Log C10AC)).
The prodrug concentrations for 10% survival (C10) of target cells (wild-type cells) grown without activators (T), and targets in co-culture (TC) and activators (NTR-expressing cells) in co-culture (AC) can be determined. The bystander effect of a test prodrug is measured by the bystander effect efficiency which can be calculated using the algorithm ((Log C10T−Log C10TC)/(Log C10T−Log C10AC)).
Millicell-CM membrane inserts (Millipore) were coated in calf-skin collagen type III (Sigma-Aldrich) to facilitate cell attachment. […] After exposure, inserts were disaggregated (0.07% trypsin, 10 min, 37° C., followed by 100 μg/ml DNAase I (Sigma-Aldrich). Cells were counted, resuspended and plated in P60 dishes to determine clonogenic survival. To discriminate clonogenic activator (NTR+) from target (NTR−) colonies cells were plated in non-selective medium (total cells) and medium containing 1 μM puromycin (activator cells). Colonies were grown in a 37° C. 5% CO2 incubator for 10 days before staining with methylene blue (2 g/liter in 50% v/v aqueous ethanol). Colonies containing >50 cells were counted as clonogenic survivors. Surviving fractions for each population was calculated as the plating efficiency for drug-treated MCLs/untreated controls. The drug concentrations for 10% survival (C10) of target cells grown without activators (T), targets in co-culture (Tc) and activators in co-culture (Ac) was determined by interpolation.

[2] = test system: HCT-116 cells expressing human cytochrome P450 reductase (CYPOR); assay: Flow cytometry of EF5 retention in vitro; format: cell-based; conditions: increasing EF5 concentrations, oxic, monolayer
Procedure: (§1) In vitro: 1×10^6 cells were drug treated (EF5 or PIMO) for 1-2 hrs, harvested by trypsinisation, fixed with 4% buffered PFA (pH 7.4, 1 hr). In vivo: Tumour xenograft cells were isolated by enzymatic dissociation (2.5 mg/ml pronase, 1 mg/ml collagenase and 0.2 mg/ml DNAse) and immediately fixed with 4% buffered PFA (pH 7.4, 1 hr). and transferred to 70% ethanol (−20° C., overnight). Cells were resuspended in 1% BSA/PBS and permeabilised with 0.2% Triton X-100 (30 min, RT), blocked in 10% BSA/PBS (30 min, RT) and resuspended in primary antibody for 2 hr (37° C.). The primary antibody was either anti-EF5 mouse monoclonal (ELK 3.51) conjugated with CY5 or Alexa-488 diluted to 100 μg/ml in blocking buffer (according to instruction in Koch C., 2008, Rad Res, 169 (6): 677-688) or Hypoxyprobe-1 (Chemicon Int) mouse monoclonal anti-pimonidazole antibody (clone 4.3.11.3) conjugated with FITC and diluted 1:100 in blocking buffer. Cells were washed in blocking buffer and resuspended in blocking buffer containing 100 μg/ml RNAase and analysed using a Becton Dickinson FACscan flow cytometer (MA, USA) with Cell Quest software using forward scatter and side scatter to gate out cell debris and tumour cells. Integrated fluorescence measurements were recorded for 30,000 single non-debris events.

[3] = test system: HCT-116 cells stably expressing E. coli NfsB; assay: Flow cytometry / fluorescent imaging of EF5 retention in vitro; format: cell-based, human
Procedure: (§2) FIG. 11 illustrates the results of flow cytometry analysis and fluorescent imaging of stably-expressing E. coli NTR cells after in vitro EF5 exposure. 1×10^6 cells were seeded into a 6-well plate and incubated with 20 μM EF5 for 2 hrs at 37° C. Cells were fixed and stained, then analysed by flow cytometry and imaged using a Nikon2000 fluorescent microscope.
(§3) FIG. 13 illustrates the results of flow cytometry analysis of HCT-116 cells stably expressing E. coli NfsA and NfsB after in vitro dose-response to EF5 exposure. 1×10^6 cells were incubated with varying concentrations of EF5 in oxic conditions. Samples were fixed and stained with EF5 antibody Alexa 488 ELK3.51 at 100 μg/ml. Samples were then analysed on a Becton Dickinson FACscan flow cytometer. Values are mean±SEM of two independent experiments. Representative histograms at multiple EF5 dose levels.
as §1
(§4) In vitro: 3-4 drops of cell suspension prepared for flow cytometry was added to a cytospin chamber containing a poly-I-lysine coated slide and spun for 5 minutes at low acceleration (500 rpm) in a cytospinner. Cells were left to dry and mounted with coverslips using Prolong Gold antifade (Invitrogen) and sealed with nail varnish.

[4] = test system: HCT-116 cells stably expressing E. coli NfsA; assay: as above; format: cell-based, human
Procedure: as §2, §3, §1, §4

[5] = increasing EF5 concentrations, oxic, monolayer

O=C(Cn1ccnc1[N+](=O)[O-])NCC(F)(F)C(F)(F)F [EF5, 2-(2-nitro-1H-imidazol-1-yl)-N-(2,2,3,3,3-pentafluoropropyl)acetamide]
bystander property (in words) ([1]; MCL of NTR-expressing and parental HCT116 cells): zero bystander property | concentration-time giving 90% loss of viability for nfsA expressing HCT116 cells ([1]; cold (radiolabel-free) EF5): 0.7 mM-hr | estimated bystander effect efficiency (BEE) ([1]; hyperoxic (95% O2) MCLs, at concentrations achievable in α-MEM+10% FBS, activator fraction differs per experiment): 0% | activity towards EF5, dose-response (in words) [2]: minimal activity | cellular retention of EF5 (in words) ([3]; 20 μM EF5, 2 h, aerobic, compared to parental cells): minor EF5 retention | activity towards EF5, dose-response (in words) [3, 5]: minimal activity | cellular retention of EF5 (in words) ([4]; 20 μM EF5, 2 h, aerobic): greatest retention | retention of EF5, dose-response (in words) [4, 5]: clearly superior
